Data published in the NIST ThermoML archive (doi:10.1016/j.fluid.2006.08.020).
± gives the expanded uncertainty stated by the source.

What was measured:
[1] = osmotic coefficient (dimensionless); mn = molality of the nth substance listed, in mol/kg; settings: 298.15 K, Liquid, isopiestic method
[2] = 298.1 K; 101.33 kPa; Liquid; Vibrating tube method

CO [methanol] + CC(=O)Nc1ccc(O)cc1
[1]
Settings | osmotic coefficient
m1 = 0.0931 | 0.998 ± 0.001
m1 = 0.1398 | 1.001 ± 0.001
m1 = 0.2163 | 1.001 ± 0.001
m1 = 0.3514 | 1 ± 0.001
m1 = 0.5633 | 1.002 ± 0.001
m1 = 1.006 | 1.009 ± 0.001
m1 = 1.236 | 1.01 ± 0.001
m1 = 1.4 | 1.015 ± 0.001
m1 = 1.578 | 1.017 ± 0.001
m1 = 1.866 | 1.02 ± 0.001
m1 = 2.465 | 1.027 ± 0.002
m1 = 2.762 | 1.033 ± 0.002
m1 = 3.096 | 1.041 ± 0.003
m1 = 3.56 | 1.055 ± 0.004
m1 = 3.974 | 1.068 ± 0.004
m1 = 4.175 | 1.075 ± 0.005
m1 = 4.812 | 1.099 ± 0.006
m1 = 5.316 | 1.12 ± 0.008
m1 = 6.17 | 1.159 ± 0.01
m1 = 6.418 | 1.171 ± 0.011
m1 = 6.833 | 1.19 ± 0.012
m1 = 7.073 | 1.21 ± 0.013

CO [methanol]
Settings | mass density [kg/m3]
[2] | 787.5 ± 0.16
